# Active and inactive are the calls of the source.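 How the source made its calls: active means fitted curve crossing a set activation limit at or below the highest valid dose tested; inconclusive means flat fit at 30 to 70% activation, or poor fit; inactive means the rest, including signal decreases.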
# Tested on: D54 ERlucT glycosylation luciferase reporter, luminescence, 24 h
# Assay: N-linked glycosylation inhibitors, luciferase reporter, dose response, D54 ERlucT cells, luminescence, cherry-picks (AID 624491);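 further: signal gain reflects blocked N-linked glycosylation of a luciferase reporter; actives raise luciferase signal so AC26 marks activators of the reporter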
row,SMILES,AC26
1,COc1ccc(Cl)cc1S(=O)(=O)Nc1ccc2c(c1)n(C)c(=O)n2C,1470 nM
2,CSc1nnc(-c2sccc2OCc2ccccc2)n1C,1950 nM
3,Cc1nnc2c(NCCC(C)C)nc3ccccc3n12,6080 nM
4,Nc1c2ccccc2nc2ccccc12,364 nM
5,COc1ccc(-c2nc3c(C(=O)NCCN(C)C)cccc3c3ccccc23)cc1,4160 nM
6,COc1ccc(NC2=C(C)C(=O)CC2)cc1,2940 nM
7,O=C(CCl)Nc1cc(S(=O)(=O)N2CCCCCC2)ccc1Cl,441 nM
8,CCOC(=O)c1c(C)nc2sc3c(=O)n(-c4ccc(C)cc4)cnc3c2c1-c1ccc(OC)cc1,116 nM
9,OC1CCCN(Cc2c3ccccc3cc3ccccc23)C1 (stereo unspecified),8750 nM
10,CCOC(=O)c1ccc(/C=C2/C=C(c3ccccc3)N(c3ccc(Cl)c(C(=O)O)c3)C2=O)cc1,1840 nM
11,CCOC(=O)c1ccccc1NS(=O)(=O)c1ccc(OC)cc1,16000 nM
12,COc1cc(C(=O)NC2CCN(C)CC2)ccc1Nc1ncc2c(n1)N(C1CCCCC1)CCC(=O)N2C,11.3 nM
13,CN1CCN(C(=O)/C=C/c2ccc([N+](=O)[O-])o2)CC1,3930 nM
14,O=S(=O)([N-]c1nc2ccccc2nc1-n1cc[n+](Cc2ccccc2)c1)c1ccccc1,520 nM
15,Nc1c(N(CCC2=CCCCC2)C(=O)COc2ccc(F)cc2Cl)c(=O)[nH]c(=O)n1Cc1ccccc1,1070 nM
16,c1ccc(-c2cc(-c3nnc4n3N=C(c3ccc5ccccc5c3)CS4)[nH]n2)cc1,2110 nM
17,CC(=O)c1cccc(-c2ccnc3c2CC(C(=O)NCc2ccco2)O3)c1 (stereo unspecified),967 nM
18,NNC(=O)c1nc(-c2ccccc2)cc(-c2ccccc2)n1,2320 nM
19,Cc1cccc2c1NC(=O)/C2=C\C(=O)c1cccs1,4260 nM
20,CCN(CC)CCCNc1nc2ccccc2c2nc(-c3ccncc3)nn12,2320 nM
21,O=c1cc(-c2ccccc2)[nH]c2ccccc12,433 nM
22,CCOC(=O)c1ccccc1Nc1cn(C(C)=O)c2ccccc12,1790 nM
23,Cc1cc(C)nc(/N=C(\N)Nc2ccc(CC(=O)OC(C)C)cc2)n1,5890 nM

row,SMILES,AC26
1,COC(=O)c1cn(C(=O)c2ccc(OC)cc2)c2ccccc12,730 nM
2,COc1ccc(CNC(=O)c2cccc3c(-c4cnn(C)c4)coc23)cc1OC,3960 nM
3,Cc1ccc2c(C)c3ccc4ccccc4c3c[n+]2c1,667 nM
4,C[C@H]1CN([C@@H](C)CO)C(=O)Cc2cc(NC(=O)CCC(F)(F)F)ccc2O[C@H]1CN(C)S(=O)(=O)c1ccc(F)cc1,5300 nM
5,O=C(COC(=O)Cn1cnc2ccccc21)Nc1cccc2c1C(=O)c1ccccc1C2=O,2840 nM
6,NC(=O)CC(NC(=O)Cc1ccc(Cl)cc1)c1ccc(NC2CCCC2)c([N+](=O)[O-])c1 (stereo unspecified),1840 nM
7,CCN(CC)CCCNc1ccc2ncn3c4ccc(O)cc4c(=O)c1c23,92.6 nM
8,CN(C1=C(NC(=O)c2ccc(Cl)cc2)C(=O)c2ccccc2C1=O)c1ccccc1,3410 nM
9,COc1ccccc1-c1cc(C(=O)Nc2cc(C)nn2-c2ccccc2)no1,760 nM
10,c1ccc(-c2nc(-n3ccnc3)nc(-n3ccnc3)n2)cc1,2780 nM
11,COc1cc2c(cc1OC)C(c1cccs1)N(C(=S)NC(C)C)CC2 (stereo unspecified),252 nM
12,C(=C\c1nccc2c1[nH]c1ccccc12)/c1ccccc1,4680 nM
13,COc1ccc(Cl)cc1NC(=O)Nc1ccc(C(=O)N2CCCC2)cc1,4030 nM
14,Cc1cccn2c(=O)c3cc(C(=O)NC4CCCCC4)n(C)c3nc12,10200 nM
15,COc1cc(C(=O)NC2CCN(C)CC2)ccc1Nc1ncc2c(n1)N(CCc1ccccc1)CCC(=O)N2C,396 nM
16,COc1ccc2nc(C)cc(Nc3ccc(N4CCN(C)CC4)cc3)c2c1,694 nM
17,Cc1ccc(N2C(=O)NC(=O)/C(=C\C=C\c3ccco3)C2=O)cc1C,875 nM
18,O=C(Cn1ncc(Cl)c(Cl)c1=O)N1CCOCC1,1220 nM
19,COc1ccc(-n2c(NNC(C)=O)nc3sc4c(c3c2=O)CCCC4)cc1,6720 nM
20,COc1cc(Nc2c3c(nc4ccccc24)CCCC3)cc(OC)c1OC,581 nM
21,Cc1ccc(S(=O)(=O)N2CCN(C(=O)COC(=O)c3cc([N+](=O)[O-])ccc3NCCO)CC2)c(C)c1,2430 nM
22,C#CC[N+](C)(C)CCCCCCCCC,6070 nM
23,Cc1nnc2c(NC(C)C)nc3ccccc3n12,4090 nM

row,SMILES,AC26
1,COc1ccc(Nc2nc(-c3sc(C)nc3C)cs2)c(OC)c1,1240 nM
2,O=C1[C@H]2[C@@H](c3ccc(F)cc3)N3C(=O)N(c4cccc(Br)c4)C(=O)[C@@]3(Cc3ccccc3)[C@H]2C(=O)N1C1CCCCC1,114 nM
3,O=C(N/N=C/c1c[nH]c2ccccc12)C1COc2ccccc2O1 (stereo unspecified),1310 nM
4,Cn1c(=O)n(C)c2cc(NC(=O)CCl)ccc21,2090 nM
5,Cc1ccc2nc(-c3ccc(SCC(=O)Nc4nnc(C)s4)nc3)[nH]c2c1,4860 nM
6,CCn1ncc(C2=NOC(C(=O)NCc3ccccc3)C2)c1C (stereo unspecified),413 nM
7,COc1ccc(NC(=O)C(=O)c2cn(CC(=O)N3CCCC3)c3ccccc23)cc1,105 nM
8,COc1ccc(CCn2c(Br)nc3c2c(=O)[nH]c(=O)n3C)cc1,1080 nM
9,CCCNS(=O)(=O)c1cccc(C(=O)OCc2cc(=O)oc3cc(OC)ccc23)c1,834 nM
10,CCOc1ccccc1C1CC(=O)Nc2cc3c(cc21)OCO3 (stereo unspecified),4370 nM
11,COc1cc(/C=C2\SC(=S)N(CCC(=O)N3CCCCC3)C2=O)cc(OC)c1OC,6840 nM
12,COc1cc(C(=O)Nc2cc(C(F)(F)F)ccc2N2CCOCC2)ccc1OCC(=O)N1CCOCC1,1820 nM
13,COc1cc(OC)c2c(-c3cccc(-c4ccoc4)c3)cc(=O)oc2c1,7640 nM
14,NC(=O)CC(NC(=O)c1ccc(Br)cc1)c1ccc(N2CCCCCC2)c([N+](=O)[O-])c1 (stereo unspecified),1410 nM
15,Oc1cc(Nc2ccccc2)cc2cccnc12,1030 nM
16,CCCNC(=O)c1ccccc1NC(=O)c1ccc2c(c1)NC(=O)C(C)S2 (stereo unspecified),1450 nM
17,C=CCOc1ccc(C(=O)Nc2ccccc2C(=O)NCc2cccnc2)cc1,2160 nM
18,CC(C)(C)c1nnc2sc(SCC(=O)c3ccc4c(c3)OCCO4)nn2c1=O,5230 nM
19,CSc1cccc(NC(=O)CCCOc2cc(=O)n(C)c3ccccc23)c1,4940 nM
20,COc1ccc(OC)c(Nc2ncnc3c2cnn3-c2cccc(C)c2)c1,3240 nM
21,Cn1c(=O)n(C)c2cc(NS(=O)(=O)c3ccc(C(C)(C)C)cc3)ccc21,9340 nM
22,COC(=O)Nc1nc(C)c(C(=O)c2ccccc2)s1,7950 nM
23,COc1cc(Nc2nc3c(N)cc(C(F)(F)F)cc3nc2-c2ccccc2)cc(OC)c1OC,868 nM

row,SMILES,AC26
1,Cc1ccccc1NC(=O)Cn1nnc(C(=O)NCc2ccco2)c1N,1770 nM
2,CCCn1nc(C(=O)N2CC(=O)Nc3ccccc32)c2ccccc2c1=O,4890 nM
3,Cc1ccc(C)c(Cn2nnc3c(=O)[nH]c(C4CCN(C(=O)c5ccco5)CC4)nc32)c1,1110 nM
4,Cc1noc(C)c1-c1ccc(C(=O)NCc2cccnc2)c2occc12,4700 nM
5,CC1CC(C)CN(C(=O)/C=C/c2ccc([N+](=O)[O-])s2)C1 (stereo unspecified),8460 nM
6,COC(=O)c1cn(C(=O)/C=C/c2ccc(OC)c(OC)c2)c2ccccc12,1640 nM
7,O=C1N[C@H]2CC=C[C@H]2N(Cc2cccs2)c2ccccc21,895 nM
8,COc1ccc(/C=C2\CC/C(=C\c3ccc(OC)c(OC)c3)C2=O)cc1OC,3790 nM
9,COC(=O)Nc1nc(-c2ccccc2)c(C(=O)c2ccc(Cl)cc2)s1,3.16 nM
10,Cc1ccc(C(=O)N2CCN(Cc3ccccc3)CC2)cc1S(=O)(=O)N1CCOCC1,1670 nM
11,C#CC[N+](C)(C)CCCCCCCCCCCC,7360 nM
12,CCn1c2ccccc2c2cc(Nc3cc(C)nc4ncnn34)ccc21,69.8 nM
13,CC(C)(C)c1ccc(OCC(=O)Nc2ccncc2)c(Br)c1,4130 nM
14,CN(C)C(CNC(=O)CSc1nc2sc3c(c2c(=O)n1C)CCCC3)c1ccccc1 (stereo unspecified),387 nM
15,COC(=O)c1ccc(C)c(NS(=O)(=O)c2ccc3c(c2)OCCO3)c1,44.7 nM
16,CC(=O)Nc1ccc(C(=O)N/N=C/c2ccccc2OCc2ccccc2)cc1,1490 nM
17,O=C(C[C@@H]1C/C=C/CC[C@H](Cc2ccc(F)cc2)C(=O)OC[C@@H](Cc2ccccc2)NC1=O)N[C@H](CO)Cc1ccccc1,4880 nM
18,COc1cc(-c2cc3nc(NCCOc4ccccc4)ccn3n2)cc(OC)c1OC,2350 nM
19,Cc1cc(NCCCn2ccnc2)n2nc(C)c(-c3ccccc3)c2n1,1170 nM
20,CN(C)c1ccc(CNC(=O)C2(C)Cc3c(-c4ccc5c(c4)OCO5)ccnc3O2)cc1 (stereo unspecified),2630 nM
21,O=C(Nc1ncccc1O)c1ccc(C(=O)c2ccccc2)cc1,5180 nM
22,CCOC(=O)c1cnc2c(ccc3ccccc32)c1NCCCN(C)C,2050 nM
23,CC(Nc1nc(-c2cccnc2)nc2ccccc12)c1ccccc1 (stereo unspecified),2830 nM

row,SMILES,AC26
1,Cc1ccc(C(=O)N2C(CC(=O)Nc3ccc(Cl)cc3)C(=O)NC3CCCCC32)cc1 (stereo unspecified),12600 nM
2,CC(=O)Nc1sc(NC(=O)c2ccccc2)nc1-c1cccs1,3450 nM
3,Cc1ccc(/C=N/NC(=O)CCn2nc(C)cc2C)c(C)c1,5510 nM
4,CCCNc1nc2ccccc2n2c(C)nnc12,2980 nM
5,O=c1[nH]c(=O)n([C@H]2C[C@H](O)[C@@H](CO)O2)cc1I,5190 nM
6,CC(=O)c1cccc(-c2ccnc3c2CC(C(=O)Nc2ccc4c(c2)OCO4)O3)c1 (stereo unspecified),2430 nM
7,CC(Oc1ccc2c(c1)c1ccnc3c4ccccc4c(=O)n2c13)C(=O)NCCN1CCOCC1 (stereo unspecified),6140 nM
8,COCCN(C(=O)CCl)C(C(=O)NC1CCCCC1)c1ccccc1C (stereo unspecified),3340 nM
9,O=C1c2ccccc2C(=O)N1Cc1cnc(N2CCN(c3ccccc3)CC2)s1,7870 nM
10,Cn1ncc2c(O/N=C(\N)c3ccc(C(F)(F)F)cc3)ncnc21,445 nM
11,CCOc1cc(NC(=O)CCl)c(OCC)cc1NC(=O)CCl,1690 nM
12,O=C(NCCCn1ccnc1)c1cc(-c2cccs2)on1,3430 nM
13,C=CCN=C(SCC(=O)c1ccc(Cl)cc1)c1c(O)n(C)c(=O)n(C)c1=O,2340 nM
14,CCOc1ncccc1C(=O)Nc1cc2c(cc1Br)OCCO2,7780 nM
15,CCN(CC)CCNc1ccc(C)c2sc3ccc(O)cc3c(=O)c12,7.74 nM
16,Cn1cnc([N+](=O)[O-])c1S(=O)(=O)c1cccc(Cl)c1,1200 nM
17,COc1cc(-c2nc(-c3ccccc3)c(-c3cccs3)[nH]2)cc(OC)c1OC,3280 nM
18,COc1ccc(C(=O)NC(=C(Cl)Cl)S(=O)(=O)c2ccc(C)cc2)cc1,10200 nM
19,CCNc1oc(/C=C/c2ccc(OCC)cc2)nc1C#N,> 19500 nM (inactive)

# — PubChem BioAssay AID624491 (Broad Institute, 2012)
